{"source": "patent US20050118658A1", "about": "“Use of ERRalpha phosphorylation status as a breast cancer biomarker” (priority 2003, published 2005)", "key": {"[1]": {"system": "ER-stimulated ERE-regulated transcription in MCF-7 cells", "experiment": "Transient transfection dual-luciferase assay of ERE-regulated transcription in MCF-7 cells", "type": "cell-based, human", "settings": "100 pM E2, 48 h, estrogen-free medium, ER-positive MCF-7 cells", "procedure": "(A) MCF-7 and (B) BT-474 cells were co-transfected in parallel with the ERE(5×)-regulated and TATA dual-luciferase reporter gene sets along with ERRα1, ERRα1L413A/L418A, GRIP1 (glucocorticoid receptor interacting protein 1, SRC2) or empty parental expression plasmids as indicated. Transfected cells were incubated for 48 h in estrogen-free medium supplemented with ethanol, the solvent for the ligands, 100 pM E2, or 100 pM E2 plus 100 nM fulvestrant (ICI 182,780, faslodex) prior to being harvested for dual-luciferase assays. The results shown here are means±standard deviations from data obtained in one representative experiment performed in triplicate.\nPlasmids pERE(5x)-ffLuc and pTATA-ffLuc, encoding firefly luciferase, and plasmid pTATA-srLuc, encoding renilla luciferase, were used as matched dual-luciferase reporter sets to assay ERE-regulated versus basal transcription along with an internal control. They were constructed by insertion via HindIII linkers of the nts −31 to +31 region of the herpes simplex virus thymidine kinase (HSV-TK) promoter into pGL3-Basic and phRG-B (Promega, Madison, Wis.), respectively. Plasmid pERE(5x)-ffLuc, containing five tandem copies of the consensus palindromic ERE, was then constructed by insertion into pTATA-fELuc of the oligodeoxynucleotides 5′-tcgag[…]gag[…]ctc[…] GACCTCTgcg[…]gcg[…]a-3′ (SEQ ID NO:1) and 5′-gatct[…]cgc[…]cgc[…] […]"}, "[2]": {"system": "phosphorylated MAPK (p-MAPK)", "experiment": "Immunoblot analysis of phosphorylated versus total MAPK in BT-474 cells", "type": "cell-based, human", "settings": "48 h, 20 μg/ml trastuzumab, 1 μM gefitinib, 20 μM U0126 or 20 μM LY294002", "procedure": "(§1) BT-474 cells were co-transfected in parallel with the ERE(5x)-regulated and TATA dual-luciferase reporter gene sets along with the indicated expression plasmids. […] In panel (B), the cells were incubated for 48 h in estrogen-free medium supplemented with dimethyl sulfoxide as the drug vehicle control, 20 μM U0126 (MEK inhibitor), or 20 μM LY294002 (PI3K inhibitor) as indicated. After incubation for 48 h, the cells were harvested for dual-luciferase assays. Data were analyzed as described in the legend to FIG. 2. (C) Immunoblot analysis of protein extracts (20 μg per sample) prepared from BT-474 cells treated as in panels A and B above for luciferase activity. The membrane was probed with antibodies that react specifically with ERRα. Reactive proteins were visualized by enhanced chemiluminescence and autoradiography. (D) Immunoblot analysis as in panel C above, only the membrane was probed with antibodies that react specifically with phosphorylated Akt (p-Akt), total Akt, phosphorylated MAPK (p-MAPK) or total MAPK.\n(§2) Proteins were extracted in Cell Lysis Buffer (Cell Signaling Technology, Beverly, Mass.) supplemented with Protease Inhibitor Cocktail Set III and Phosphatase Inhibitor Cocktail Set II (Calbiochem). Protein amounts were quantified with Coomassie Protein Assay Reagent (Pierce Biotechnology) with BSA as the standard. […] In FIG. 5D, the membrane was probed sequentially with p44/42 MAPK polyclonal antibody, phospho-specific p44/42 MAPK (Thr202/Tyr204) monoclonal antibody E10, Akt polyclonal antibody, and phospho-specific Akt (Ser473) polyclonal antibody (Cell Signaling Technology). Reacting material was detected using horseradish peroxidase-conjugated secondary antibodies (Jackson ImmunoResearch Laboratories, West Grove, Pa.) together with enhanced chemiluminescence (Amersham Pharmacia) and autoradiography."}, "[3]": {"system": "phosphorylated Akt (p-Akt)", "experiment": "Immunoblot analysis of phosphorylated versus total Akt in BT-474 cells", "type": "cell-based, human", "settings": "48 h, 20 μg/ml trastuzumab, 1 μM gefitinib, 20 μM U0126 or 20 μM LY294002", "procedure": "as §1, §2"}, "[4]": {"system": "ERRα", "experiment": "Immunoblot analysis of ERRα expression in ERRα-transfected BT-474 cells", "type": "cell-based, human", "settings": "BT-474 cells transfected with ERRα, 48 h; 20 μg/ml trastuzumab, 1 μM gefitinib, 20 μM U0126 or 20 μM LY294002", "procedure": "as §1, §2"}, "[5]": {"system": "ERRα1-mediated constitutive activation of ERE-regulated transcription in BT-474 cells", "experiment": "Transient transfection dual-luciferase assay of ERRα1-mediated ERE-regulated transcription in BT-474 cells", "type": "cell-based, human", "procedure": "as §1"}, "[6]": {"biological_target": "T1, GST-ERRα1 1-423 (full-length GST-ERRα1 fusion protein) (UniProt P11474)", "T1 sequence": "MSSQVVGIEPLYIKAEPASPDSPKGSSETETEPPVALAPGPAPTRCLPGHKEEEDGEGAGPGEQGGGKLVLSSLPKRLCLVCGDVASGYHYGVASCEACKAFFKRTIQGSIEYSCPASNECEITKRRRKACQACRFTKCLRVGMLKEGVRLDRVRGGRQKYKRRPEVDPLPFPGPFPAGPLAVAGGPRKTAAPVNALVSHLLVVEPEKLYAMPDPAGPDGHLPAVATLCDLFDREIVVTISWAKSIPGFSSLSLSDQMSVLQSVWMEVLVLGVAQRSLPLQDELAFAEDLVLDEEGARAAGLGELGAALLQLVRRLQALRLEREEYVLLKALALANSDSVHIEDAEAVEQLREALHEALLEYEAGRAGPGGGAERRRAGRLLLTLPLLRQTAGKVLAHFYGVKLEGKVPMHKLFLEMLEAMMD"}, "[7]": {"biological_target": "T2, GST-ERRα1 1-173 (truncated GST-ERRα1 fusion protein) (UniProt P11474)", "T2 sequence": "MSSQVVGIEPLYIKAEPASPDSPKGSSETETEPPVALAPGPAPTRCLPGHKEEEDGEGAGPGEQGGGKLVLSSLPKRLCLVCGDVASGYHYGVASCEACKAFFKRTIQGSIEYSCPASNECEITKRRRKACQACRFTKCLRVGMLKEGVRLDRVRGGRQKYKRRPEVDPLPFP"}, "[8]": {"biological_target": "T3, GST-ERRα1 1-376 (truncated GST-ERRα1 fusion protein) (UniProt P11474)", "T3 sequence": "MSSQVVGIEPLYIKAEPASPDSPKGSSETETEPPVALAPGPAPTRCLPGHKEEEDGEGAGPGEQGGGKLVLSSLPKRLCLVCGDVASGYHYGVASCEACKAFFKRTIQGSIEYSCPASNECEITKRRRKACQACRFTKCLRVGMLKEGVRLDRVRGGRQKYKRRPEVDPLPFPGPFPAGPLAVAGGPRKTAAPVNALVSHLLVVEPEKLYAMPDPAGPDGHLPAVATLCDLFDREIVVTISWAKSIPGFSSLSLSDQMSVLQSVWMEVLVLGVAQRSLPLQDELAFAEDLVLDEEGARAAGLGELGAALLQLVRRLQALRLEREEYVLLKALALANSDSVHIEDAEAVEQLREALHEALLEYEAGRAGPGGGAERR"}, "[9]": {"system": "GST-β-globin 1-123 fusion protein [GST: P08515]", "sequence (P08515 whole entry, looked up, the tested form may be a part)": "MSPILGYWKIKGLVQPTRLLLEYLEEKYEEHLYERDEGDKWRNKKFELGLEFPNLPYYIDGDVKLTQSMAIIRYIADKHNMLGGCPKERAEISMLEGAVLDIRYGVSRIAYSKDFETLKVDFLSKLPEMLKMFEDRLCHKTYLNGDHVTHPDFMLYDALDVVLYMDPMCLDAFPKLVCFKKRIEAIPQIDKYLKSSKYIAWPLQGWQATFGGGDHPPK"}, "[10]": {"system": "PHAS-1 (phosphorylated heat and acid-stable protein regulated by insulin)"}, "[11]": {"biological_target": "Human ERRα1 containing a C-terminal 6×His tag, expressed and purified from E. coli, P11474"}}, "data": [{"molecule": "C[C@]12CC[C@@H]3c4ccc(O)cc4CC[C@H]3[C@@H]1CC[C@@H]2O", "note": "[E2, 17β-estradiol]", "values": [{"measurement": "induction of ERE-regulated transcription", "setting": "[1]", "value": 19, "unit": "fold"}]}, {"molecule": "O=c1cc(N2CCOCC2)oc2c(-c3ccccc3)cccc12", "note": "[LY294002, 2-(4-morpholinyl)-8-phenyl-4H-1-benzopyran-4-one]", "values": [{"measurement": "phosphorylation of MAPK / MEK/MAPK pathway activation (immunoblot)", "setting": "[2]", "value": "without affecting MAPK status"}, {"measurement": "phosphorylation of Akt / PI3K/Akt pathway activation (immunoblot)", "setting": "[3]", "value": "inhibition of phosphorylation of Akt"}, {"measurement": "ERRα expression (immunoblot)", "setting": "[4]", "value": "still expressed"}]}, {"molecule": "N#CC(=C(/N)Sc1ccccc1N)/C(C#N)=C(\\N)Sc1ccccc1N", "note": "[U0126]", "values": [{"measurement": "phosphorylation of MAPK / MEK/MAPK pathway activation (immunoblot)", "setting": "[2]", "value": "inhibition of phosphorylation of MAPK"}, {"measurement": "reduction in ERRα1's activator activity", "setting": "[5]", "value": "approximately 50%"}, {"measurement": "phosphorylation of Akt / PI3K/Akt pathway activation (immunoblot)", "setting": "[3]", "value": "without affecting Akt status"}, {"measurement": "ERRα expression (immunoblot)", "setting": "[4]", "value": "still expressed"}]}, {"molecule": "rat p42 MAPK2 (ERK2; Calbiochem) phosphorylated in vitro by a constitutively active MEK1 mutant", "values": [{"measurement": "in vitro phosphorylation with [γ32P]-ATP, 12% SDS-PAGE and PhosphorImager", "setting": "[6]", "value": "MAPK phosphorylated each of the GST-ERRα1 fusion proteins, with more label being incorporated into GST-ERRα11-423 than into GST-ERRα11-376 and GST-ERRα11-173"}, {"measurement": "in vitro phosphorylation with [γ32P]-ATP, 12% SDS-PAGE and PhosphorImager", "setting": "[7]", "value": "MAPK phosphorylated each of the GST-ERRα1 fusion proteins, with more label being incorporated into GST-ERRα11-423 than into GST-ERRα11-376 and GST-ERRα11-173"}, {"measurement": "in vitro phosphorylation with [γ32P]-ATP, 12% SDS-PAGE and PhosphorImager", "setting": "[8]", "value": "MAPK phosphorylated each of the GST-ERRα1 fusion proteins, with more label being incorporated into GST-ERRα11-423 than into GST-ERRα11-376 and GST-ERRα11-173"}, {"measurement": "in vitro phosphorylation with [γ32P]-ATP, 12% SDS-PAGE and PhosphorImager", "setting": "[9]", "value": "activated MAPK efficiently phosphorylated PHAS-1, but not GST-β-globin1-123"}, {"measurement": "in vitro phosphorylation with [γ32P]-ATP, 12% SDS-PAGE and PhosphorImager", "setting": "[10]", "value": "activated MAPK efficiently phosphorylated PHAS-1, but not GST-β-globin1-123"}]}, {"molecule": "Human MAPK1 containing an N-terminal GST tag, activated with MEK1 (protein) MAAAAAQGGGGGEPRRTEGVGPGVPGEVEMVKGQPFDVGPRYTQLQYIGEGAYGMVSSAYDHVRKTRVAIKKISPFEHQTYCQRTLREIQILLRFRHENVIGIRDILRASTLEAMRDVYIVQDLMETDLYKLLKSQQLSNDHICYFLYQILRGLKYIHSANVLHRDLKPSNLLINTTCDLKICDFGLARIADPEHDHTGFLTEYVATRWYRAPEIMLNSKGYTKSIDIWSVGCILAEMLSNRPIFPGKHYLDQLNHILGILGSPSQEDLNCIINMKARNYLQSLPSKTKVAWAKLFPKSDSKALDLLDRMLTFNPNKRITVEEALAHPYLEQYYDPTDEPVAEEPFTFAMELDDLPKERLKELIFQETARFQPGVLEAP", "values": [{"measurement": "in vitro phosphorylation with [γ-32P]-ATP, SDS-(4-12%) PAGE and autoradiography", "setting": "[11]", "value": "Each of the kinases tested was capable of phosphorylating ERRα in vitro"}]}, {"molecule": "Human Akt1 containing an N-terminal 6×His tag, lacking amino acids 1-117 (Pleckstrin Homology domain), serine 473 mutated to aspartic acid (protein) HHHHHHMDFRSGSPSDNSGAEEMEVSLAKPKHRVTMNEFEYLKLLGKGTFGKVILVKEKATGRYYAMKILKKEVIVAKDEVAHTLTENRVLQNSRHPFLTALKYSFQTHDRLCFVMEYANGGELFFHLSRERVFSEDRARFYGAEIVSALDYLHSEKNVVYRDLKLENLMLDKDGHIKITDFGLCKEGIKDGATMKTFCGTPEYLAPEVLEDNDYGRAVDWWGLGVVMYEMMCGRLPFYNQDHEKLFELILMEEIRFPRTLGPEAKSLLSGLLKKDPKQRLGGGSEDAKEIMQHRFFAGIVWQHVYEKKLSPPFKPQVTSETDTRYFDEEFTAQMITITPPDQDDSMECVDSERRPHFPQFDYSASGTA", "values": [{"measurement": "in vitro phosphorylation with [γ-32P]-ATP, SDS-(4-12%) PAGE and autoradiography", "setting": "[11]", "value": "Each of the kinases tested was capable of phosphorylating ERRα in vitro"}]}, {"molecule": "Human Akt2 containing an N-terminal 6×His tag, lacking amino acids 1-117 (Pleckstrin Homology domain), serine 474 mutated to aspartic acid (protein) HHHHHHDPMDYKCGSPSDSSTTEEMEVAVSKARAKVTMNDFDYLKLLGKGTFGKVILVREKATGRYYAMKILRKEVIIAKDEVAHTVTESRVLQNTRHPFLTALKYAFQTHDRLCFVMEYANGGELFFHLSRERVFTEERARFYGAEIVSALEYLHSRDVVYRDIKLENLMLDKDGHIKITDFGLCKEGISDGATMKTFCGTPEYLAPEVLEDNDYGRAVDWWGLGVVMYEMMCGRLPFYNQDHERLFELILMEEIRFPRTLSPEAKSLLAGLLKKDPKQRLGGGPSDAKEVMEHRFFLSINWQDVVQKKLLPPFKPQVTSEVDTRYFDDEFTAQSITITPPDRYDSLGLLELDQRTHFPQFDYSASIRE", "values": [{"measurement": "in vitro phosphorylation with [γ-32P]-ATP, SDS-(4-12%) PAGE and autoradiography", "setting": "[11]", "value": "Each of the kinases tested was capable of phosphorylating ERRα in vitro"}]}]}
